21 compounds from patent US20070249620A1, “Urea Derivative” (priority 2004, published 2007) can be followed below.

The target of one data set is T1, mouse DGAT1 (Mus musculus, UniProt Q9Z2A7).
T1 construct: made in house; host or cells: insect cells (High Five, Sf9, Sf21, etc.), baculovirus expression system (Invitrogen)
T1 sequence (Q9Z2A7 1-498): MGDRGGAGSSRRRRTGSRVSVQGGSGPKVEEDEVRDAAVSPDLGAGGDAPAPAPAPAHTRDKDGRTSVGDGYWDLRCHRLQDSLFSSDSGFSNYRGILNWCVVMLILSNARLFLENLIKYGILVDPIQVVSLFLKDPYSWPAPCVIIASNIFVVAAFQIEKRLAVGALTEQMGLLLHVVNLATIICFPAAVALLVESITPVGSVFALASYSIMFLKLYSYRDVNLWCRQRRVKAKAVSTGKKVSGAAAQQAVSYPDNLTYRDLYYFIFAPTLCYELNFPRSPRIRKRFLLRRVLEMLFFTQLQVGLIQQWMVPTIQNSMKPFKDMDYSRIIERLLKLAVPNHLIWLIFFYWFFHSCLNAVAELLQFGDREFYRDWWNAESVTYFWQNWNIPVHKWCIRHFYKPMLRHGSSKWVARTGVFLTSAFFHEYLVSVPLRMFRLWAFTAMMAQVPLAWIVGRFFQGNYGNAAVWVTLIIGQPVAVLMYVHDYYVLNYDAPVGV
Briefly: DGAT1 inhibitory effect test (microsome fraction, [14C]-oleoyl-CoA, triglyceride radioactivity by TLC). The conditions noted are these: 0.5 h; concentration of the test compound 0.1 μg/ml; mouse DGAT1 microsomes, 23° C., 30 minutes; read-out: Inhibitory ratio. The data set is classed as biochemical. The procedure, abridged: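 Baculovirus-expressed mouse DGAT1 insect-cell microsomes (10 μg) were incubated 30 min at 23 °C, pH 8.0, with 0.5 mM 1,2-dioleoyl-sn-glycerol, 30 μM [14C]-oleoyl-CoA and 0.5% Triton X-100. [14C]-triglyceride was quantified after heptane extraction and TLC. Percent inhibition was taken against vehicle control, with 0-min background subtracted.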

The structures appear in SMILES notation. A value given as a limit tells only on which side of the number the result lay.

In the case of `Cc1nc(NC(=O)Nc2ccc(N3CCN(C(=O)Nc4ccc(OCCO)cc4C(F)(F)F)CC3)cc2)sc1C` [Example 225, 4-{4-[3-(4,5-dimethyl-thiazol-2-yl)-ureido]-phenyl}-piperazine-1-carboxylic acid [4-(2-hydroxy-ethoxy)-2-trifluoromethyl-phenyl]-amide], the melting point (in general, the temperature of the solid-liquid transition) was 166 to 167 °C. For the same compound, on mouse DGAT1, the inhibition at 0.1 µg/mL is ≥ 50%.
`COc1ccc(C)cc1NC(=O)Nc1ccc2c(c1)CCN(C(=O)Nc1ccc(OCCO)cc1C(F)(F)F)C2` [Example 226, 6-[3-(2-methoxy-5-methyl-phenyl)-ureido]-3,4-dihydro-1H-isoquinoline-2-carboxylic acid [4-(2-hydroxy-ethoxy)-2-trifluoromethyl-phenyl]-amide] yielded a melting point of 122 to 124 °C. The inhibition at 0.1 µg/mL on mouse DGAT1 was ≥ 50%.
Take `O=C(Nc1ccc2c(c1)CCN(C(=O)Nc1ccc(OCCO)cc1C(F)(F)F)C2)Nc1ccccc1F` [Example 227, 6-[3-(2-fluoro-phenyl)-ureido]-3,4-dihydro-1H-isoquinoline-2-carboxylic acid [4-(2-hydroxy-ethoxy)-2-trifluoromethyl-phenyl]-amide]: the melting point fell in the range of 162 to 164 °C. Also, the inhibition at 0.1 µg/mL on mouse DGAT1 is ≥ 50%.
With `COc1ccc(C)cc1NC(=O)Nc1ccc(C2CCN(C(=O)Nc3c(C)cccc3Cl)CC2)cc1` [Example 228, 4-{4-[3-(2-methoxy-5-methyl-phenyl)-ureido]-phenyl}-piperidine-1-carboxylic acid (2-chloro-6-methyl-phenyl)-amide], the melting point was in the range of 234 to 236 °C. Also, the inhibition at 0.1 µg/mL at mouse DGAT1 was ≥ 50%.
Compound `O=C(Nc1ccc(C2=CCN(C(=O)Nc3ccc(OCCO)cc3C(F)(F)F)CC2)cc1)Nc1ccccc1F` [Example 229, 4-{4-[3-(2-fluoro-phenyl)-ureido]-phenyl}-3,6-dihydro-2H-pyridine-1-carboxylic acid [4-(2-hydroxy-ethoxy)-2-trifluoromethyl-phenyl]-amide] yielded a melting point of 110 to 112 °C. Further, the inhibition at 0.1 µg/mL at mouse DGAT1 was ≥ 50%.
As for `COc1ccc(C)cc1NC(=O)Nc1ccc(C2=CCN(C(=O)Nc3ccc(OCCO)cc3C(F)(F)F)CC2)cc1` [Example 230, 4-{4-[3-(2-methoxy-5-methyl-phenyl)-ureido]-phenyl}-3,6-dihydro-2H-pyridine-1-carboxylic acid [4-(2-hydroxy-ethoxy)-2-trifluoromethyl-phenyl]-amide], the melting point lay within 150 to 153 °C. Moreover, the inhibition at 0.1 µg/mL at mouse DGAT1 was ≥ 50%.
Compound `COc1ccc(C)cc1NC(=O)Nc1ccc(N2CCN(C(=O)Nc3cc(OCCO)ccc3Cl)CC2)cc1` [Example 231, 4-{4-[3-(2-methoxy-5-methyl-phenyl)-ureido]-phenyl}-piperazine-1-carboxylic acid [2-chloro-5-(2-hydroxy-ethoxy)-phenyl]-amide] had a melting point of 121 to 124 °C. Further, the inhibition at 0.1 µg/mL on mouse DGAT1 is ≥ 50%.
The like results for `COc1ccccc1NC(=O)Nc1ccc(N2CCN(C(=O)Nc3cc(OCCO)ccc3Cl)CC2)cc1` [Example 232, 4-{4-[3-(2-methoxy-phenyl)-ureido]-phenyl}-piperazine-1-carboxylic acid [2-chloro-5-(2-hydroxy-ethoxy)-phenyl]-amide] were, in that order, 179 to 180 °C and ≥ 50%.
Compound `CCOc1cccc(NC(=O)Nc2ccc(N3CCN(C(=O)Nc4cc(OCCO)ccc4Cl)CC3)cc2)c1` [Example 233, 4-{4-[3-(3-ethoxy-phenyl)-ureido]-phenyl}-piperazine-1-carboxylic acid [2-chloro-5-(2-hydroxy-ethoxy)-phenyl]-amide] registered a melting point of 196 to 197 °C. For the same compound, the inhibition at 0.1 µg/mL on mouse DGAT1 was ≥ 50%.
The like results for `COc1cc(NC(=O)Nc2ccc(N3CCN(C(=O)Nc4cc(OCCO)ccc4Cl)CC3)cc2)cc(OC)c1` [Example 234, 4-{4-[3-(3,5-dimethoxy-phenyl)-ureido]-phenyl}-piperazine-1-carboxylic acid [2-chloro-5-(2-hydroxy-ethoxy)-phenyl]-amide] were, in that order, 191 to 192 °C and ≥ 50%.
The like results for `COc1ccccc1NC(=O)Nc1ccc(N2CCN(C(=O)Nc3cc(OCCO)ccc3Cl)CC2)nc1` [Example 235, 4-{5-[3-(2-methoxy-phenyl)-ureido]-pyridin-2-yl}-piperazine-1-carboxylic acid [2-chloro-5-(2-hydroxy-ethoxy)-phenyl]-amide] were, in that order, 139 to 141 °C and ≥ 50%.
The like results for `CCOc1cccc(NC(=O)Nc2ccc(N3CCN(C(=O)Nc4cc(OCCO)ccc4Cl)CC3)nc2)c1` [Example 236, 4-{5-[3-(3-ethoxy-phenyl)-ureido]-pyridin-2-yl}-piperazine-1-carboxylic acid [2-chloro-5-(2-hydroxy-ethoxy)-phenyl]-amide] were, in that order, 140 to 143 °C and ≥ 50%.
`Cc1nc(NC(=O)Nc2ccc(N3CCN(C(=O)Nc4cc(OCCO)ccc4Cl)CC3)nc2)sc1C` [Example 237, 4-{5-(3-(4,5-dimethyl-thiazol-2-yl)-ureido)-pyridin-2-yl}-piperazine-1-carboxylic acid {2-chloro-5-(2-hydroxy-ethoxy)-phenyl}-amide] displayed a melting point of 128 to 129 °C. Besides, at mouse DGAT1, the inhibition at 0.1 µg/mL is ≥ 50%.
For the compound `COc1ccc(C)cc1NC(=O)Nc1ccc(N2CCN(C(=O)Nc3cc(OCCO)ccc3Cl)CC2)nc1` [Example 238, 4-{5-[3-(2-methoxy-5-methyl-phenyl)-ureido]-pyridin-2-yl}-piperazine-1-carboxylic acid [2-chloro-5-(2-hydroxy-ethoxy)-phenyl]-amide], the melting point was 132 to 134 °C. Moreover, the inhibition at 0.1 µg/mL on mouse DGAT1 was ≥ 50%.
Compound `COc1ccc(C)cc1NC(=O)Nc1ccc(N2CCN(C(=O)Nc3ccc(OCCO)cc3C(F)(F)F)CC2)c(C)c1` [Example 239, 4-{4-[3-(2-methoxy-5-methyl-phenyl)-ureido]-2-methyl-phenyl}-piperazine-1-carboxylic acid [4-(2-hydroxy-ethoxy)-2-trifluoromethyl-phenyl]-amide] returned a melting point of 225 to 228 °C. Besides, at mouse DGAT1, the inhibition at 0.1 µg/mL was ≥ 50%.
`O=C(Nc1ccc(N2CCN(C(=O)Nc3ccc(OCCO)cc3C(F)(F)F)CC2)cc1)Nc1ccccc1OC(F)(F)F` [Example 240, 4-{4-[3-(2-trifluoromethoxy-phenyl)-ureido]-phenyl}-piperazine-1-carboxylic acid [4-(2-hydroxy-ethoxy)-2-trifluoromethyl-phenyl]-amide] had a melting point of 112 to 114 °C. In addition, the inhibition at 0.1 µg/mL at mouse DGAT1 was ≥ 50%.
In turn, `CSc1ccccc1NC(=O)Nc1ccc(N2CCN(C(=O)Nc3ccc(OCCO)cc3C(F)(F)F)CC2)cc1` [Example 241, 4-{4-[3-(2-methylsulfanyl-phenyl)-ureido]-phenyl}-piperazine-1-carboxylic acid [4-(2-hydroxy-ethoxy)-2-trifluoromethyl-phenyl]-amide] showed a melting point of 115 to 116 °C. Moreover, the inhibition at 0.1 µg/mL on mouse DGAT1 was ≥ 50%.
In turn, `COc1ccc(C)cc1NC(=O)Nc1ccc(N2CCN(C(=O)Nc3ccc(OCCO)cc3C(F)(F)F)CC2)c(C#N)c1` [Example 242, 4-{2-cyano-4-[3-(2-methoxy-5-methyl-phenyl)-ureido]-phenyl}-piperazine-1-carboxylic acid [4-(2-hydroxy-ethoxy)-2-trifluoromethyl-phenyl]-amide] had a melting point of 135 to 137 °C. Also, the inhibition at 0.1 µg/mL on mouse DGAT1 was ≥ 50%.
For the compound `O=C(Nc1ccc(N2CCN(C(=O)Nc3ccc(OCCO)cc3C(F)(F)F)CC2)cc1)Nc1ccc2c(c1)CCO2` [Example 243, 4-{4-[3-(2,3-dihydro-benzofuran-5-yl)-ureido]-phenyl}-piperazine-1-carboxylic acid [4-(2-hydroxy-ethoxy)-2-trifluoromethyl-phenyl]-amide], the melting point lay in the range of 212 to 214 °C. Also, the inhibition at 0.1 µg/mL at mouse DGAT1 was ≥ 50%.
Regarding `O=C(Nc1ccc(N2CCN(C(=O)Nc3ccc(OCCO)cc3C(F)(F)F)CC2)cc1)Nc1cccc2c1OCCO2` [Example 244, 4-{4-[3-(2,3-dihydro-1,4-benzodioxin-5-yl)-ureido]-phenyl}-piperazine-1-carboxylic acid [4-(2-hydroxy-ethoxy)-2-trifluoromethyl-phenyl]-amide], the melting point fell in the range of 127 to 129 °C. The inhibition at 0.1 µg/mL on mouse DGAT1 is ≥ 50%.
Consider `O=C(Nc1ccc(N2CCN(C(=O)Nc3ccc(OCCO)cc3C(F)(F)F)CC2)cc1)Nc1ccccc1OC(F)F` [Example 245, 4-{4-[3-(2-difluoromethoxy-phenyl)-ureido]-phenyl}-piperazine-1-carboxylic acid [4-(2-hydroxy-ethoxy)-2-trifluoromethyl-phenyl]-amide], for which the melting point fell in the range of 118 to 120 °C. The inhibition at 0.1 µg/mL on mouse DGAT1 was ≥ 50%.
